Reference: US20030166645A1, “Novel nitrofuran-containing heterocyclic compounds and uses thereof” (priority 2001, published 2003)
Converted amounts (≈) assume the structure as drawn.

Columns and labels:
Assay in all cases: Microdilution antimicrobial susceptibility test (MIC)
Format in all cases: cell-based
S aureus = settings: broth microdilution, 18-24 h, MIC = 90% inhibition of growth; for MIC: read-out: MIC S aureus MIC2
E coli = settings: broth microdilution, 18-24 h, MIC = 90% inhibition of growth; for MIC: read-out: MIC E coli MIC2
S cerevisiae = settings: broth microdilution, 18-24 h, MIC = 90% inhibition of growth; for MIC: read-out: MIC S cerevisiae MIC7
M. catarrhalis = settings: broth microdilution, 18-24 h, MIC = 90% inhibition of growth; for MIC: Moraxella catarrhalis, read-out: MIC M. catarrhalis MIC2
E coli (ImpA) = settings: broth microdilution, 18-24 h, MIC = 90% inhibition of growth; for MIC: read-out: MIC E coli (ImpA) MIC9
Experimental: Microdilution Antimicrobial Susceptibility Test Assay
Stock solutions of tested compounds were prepared in N,N-dimethylformamide (DMF) at a concentration of 5 mg/mL. Working solutions of the tested compounds were then prepared from the stock solutions, in Mueller-Hinton broth (MHB) with a starting concentration of 64 μg/mL.
Bacterial inocula were prepared from overnight culture (i.e., one fresh colony from agar plate in 5 ml MHB; H. influenzae was grown in MHB with the addition of yeast extract, haematin, and NAD), centrifuged 2×5 min/3000 rpm (for S. pneumoniae and H. influenzae, 2×10 min/3000 rpm), and dispensed in 5 ml of fresh MHB each time, such that the bacterial suspension is diluted to obtain 100 colony forming units (cfu) in a microplate well (100 μl total volume).
Microplate wells were filled with two-fold dilutions of test compound (50 Al), starting with 64 μg/ml. Wells were then filled with 50 μl of bacterial inoculum (final volume: 100 μl/well). The plates were incubated at 37° C. for 18-24 hours (S. pneumoniae was grown in a CO2-enriched atmosphere).

H influenzae = settings: broth microdilution, 18-24 h, MIC = 90% inhibition of growth; for MIC: read-out: MIC H influenzae MIC4
S pneumoniae = settings: broth microdilution, 18-24 h, CO2-enriched atmosphere, MIC = 90% inhibition of growth; for MIC: read-out: MIC S pneumoniae MIC6
E faecalis = settings: broth microdilution, 18-24 h, MIC = 90% inhibition of growth; for MIC: read-out: MIC E faecalis MIC2

SMILES	MIC (S aureus) [µg/mL]	MIC (E coli) [µg/mL]	MIC (S cerevisiae) [µg/mL]	MIC (M. catarrhalis) [µg/mL]	MIC (E coli (ImpA)) [µg/mL]	MIC (H influenzae) [µg/mL]	MIC (S pneumoniae) [µg/mL]	MIC (E faecalis) [µg/mL]	MIC S aureus MIC2 (S aureus) [µg/mL]	MIC E coli MIC2 (E coli) [µg/mL]	MIC S cerevisiae MIC7 (S cerevisiae) [µg/mL]	MIC M. catarrhalis MIC2 (M. catarrhalis) [µg/mL]	MIC E coli (ImpA) MIC9 (E coli (ImpA)) [µg/mL]	MIC H influenzae MIC4 (H influenzae) [µg/mL]	MIC S pneumoniae MIC6 (S pneumoniae) [µg/mL]	MIC E faecalis MIC2 (E faecalis) [µg/mL]
O=[N+]([O-])c1ccc(-c2nnc(S)n2-c2ccc(Cl)cc2)o1 [Compound 139, 4-(4-Chlorophenyl)-5-(5-nitrofuranyl)-4H-1,2,4-triazol-3-thiol]	0.25 (≈ 0.775 µM)	> 64	32 (≈ 99.2 µM)	< 0.12	< 0.12	2 (≈ 6.2 µM)	2 (≈ 6.2 µM)	2 (≈ 6.2 µM)								
Nn1c(S)nnc1-c1ccc([N+](=O)[O-])o1 [Compound 110]	32 (≈ 141 µM)	16 (≈ 70.4 µM)	64 (≈ 282 µM)	32 (≈ 141 µM)		8 (≈ 35.2 µM)	32 (≈ 141 µM)	> 128								
O=[N+]([O-])c1ccc(-c2nnc(S)[nH]2)o1 [Compound 117]	64 (≈ 302 µM)	> 64	> 64	2 (≈ 9.43 µM)	16 (≈ 75.4 µM)	8 (≈ 37.7 µM)	2 (≈ 9.43 µM)	32 (≈ 151 µM)								
CSc1nnc(-c2ccc([N+](=O)[O-])o2)n1C [Compound 124]	16 (≈ 66.6 µM)	64 (≈ 266 µM)	16 (≈ 66.6 µM)	1 (≈ 4.16 µM)	2 (≈ 8.32 µM)	8 (≈ 33.3 µM)	8 (≈ 33.3 µM)	32 (≈ 133 µM)								
CCCCn1c(S)nnc1-c1ccc([N+](=O)[O-])o1 [Compound 133]									64 (≈ 239 µM)	>64	64 (≈ 239 µM)	32 (≈ 119 µM)	64 (≈ 239 µM)	32 (≈ 119 µM)	64 (≈ 239 µM)	>64
O=[N+]([O-])c1ccc(-c2nnc(S)n2CCCN2CCOCC2)o1 [Compound 120]									64 (≈ 189 µM)	>64	64 (≈ 189 µM)	2 (≈ 5.89 µM)	32 (≈ 94.3 µM)	16 (≈ 47.1 µM)	16 (≈ 47.1 µM)	64 (≈ 189 µM)
Cn1c(SCC#N)nnc1-c1ccc([N+](=O)[O-])o1 [Compound 121]									16 (≈ 60.3 µM)	8 (≈ 30.2 µM)	>64	1 (≈ 3.77 µM)	2 (≈ 7.54 µM)	16 (≈ 60.3 µM)	16 (≈ 60.3 µM)	64 (≈ 241 µM)
O=[N+]([O-])c1ccc(-c2nnc(S)n2-c2ccc(F)cc2)o1 [Compound 136]									32 (≈ 104 µM)	>64	64 (≈ 209 µM)	4 (≈ 13.1 µM)	16 (≈ 52.2 µM)	16 (≈ 52.2 µM)	8 (≈ 26.1 µM)	64 (≈ 209 µM)
Cn1c(SCCCO)nnc1-c1ccc([N+](=O)[O-])o1 [Compound 116, 5-[2-(5-Nitro)furyl]-4-methyl-4H-1,2,4-triazole-3-(3-hydroxypropyl)-thiol]	8 (≈ 28.1 µM)	8 (≈ 28.1 µM)	> 64	0.5 (≈ 1.76 µM)	1 (≈ 3.52 µM)	16 (≈ 56.3 µM)	8 (≈ 28.1 µM)	8 (≈ 28.1 µM)								
O=[N+]([O-])c1ccc(-c2nnc(S)n2-c2ccc(Br)c(Cl)c2)o1 [Compound 142]									<0.12	>64	64 (≈ 159 µM)	<0.12	<0.12	8 (≈ 19.9 µM)	2 (≈ 4.98 µM)	1 (≈ 2.49 µM)
